Results taken from patent US20230014226A1, “NEW COMPOUNDS AND METHODS” (BenevolentAI Bio Limited, priority 2019, published 2023).
Like-named read-outs stand apart in the source and are kept apart here.

Experiments:
[1] = tested on: HUVEC; assay: HUVEC Cell Viability (CV) assay; type: cell-based, human; details: for IC50: Homo sapiens, alamarBlue
Protocol: Cells are seeded at 10,000 cells/well in 96-well plates in HUVEC specific cell culture media. Cells are plated and cultured overnight (16-24 h) at 37° C. After the overnight culture, cells are washed and fed with the Assay Medium. Test compounds are applied and incubated with the cells for the designated time period, after which the cell viability is measured by alamarBlue method. […] The final DMSO concentration is 1%.
Fluorescence readings are recorded after the test compound and alamarBlue incubation. The excitation and emission wavelengths are 530 nm and 590 nm, respectively.
The percent of control is calculated by comparing the readings in the presence of the test compound to the vehicle control. Subsequently, the percent inhibition is calculated by subtracting the percent control activity from 100. IC50 values (concentration causing a half-maximal inhibition of the control value) are determined by non-linear regression analysis of the concentration-response curves using the Hill equation.
The reference compound used for this assay is Staurosporine.

[2] = tested on: HUVEC (human umbilical venous endothelial cells); assay: HUVEC Tube Formation assay; type: cell-based; details: 18 h incubation, read-out: Tube formation GI50
Protocol: HUVEC (human umbilical venous endothelial cells, 1.5×10^4/well, ATCC CRL-1730) are placed in an earlier prepared 96-well plate. Test substance and/or vehicle is then added to each well in a final concentration of 0.4% DMSO in growth medium under an atmosphere of 5% CO2 at 37° C. After an 18 h incubation period, morphology of the endothelial cell tubes, which resemble a capillary-like network, are evaluated by a confocal high-content imaging system. Disruption (anti-angiogenesis) of total tube length is measured from each photograph and determined relative to the vehicle control group. […] Compounds are screened at 30, 3, 0.3, 0.03 and 0.003 μM (or μg/mL) in triplicate.

[3] = tested on: SC-hCMs (stem cell cardiomyocytes); assay: Cardiomyocyte assay (CRL), iPSC cardiomyocytes; type: cell-based, human; details: for effect on sodium spike amplitude vs. control (given as reduction for nilotinib and Example 39): 10 μM after 48 hours; for ΔΔ Na Spike Amp at 10 μM, 48 h (%): corrected by time matched controls
Protocol: All measurements were performed at physiological temperature in a tissue culture incubator (37° C.; 5% CO2). Test article, positive controls and vehicle were added in a sterile tissue culture hood.
At least 10 h before compound addition SC-hCMs were exposed to the fresh culture medium. Before compound addition a one-minute recording of field potentials and impedance signals (baseline) was obtained. Test articles, vehicle and positive controls were added as a 2× concentration. One-minute recordings were obtained 0.5, 1, 2, 24 and 48 h after test article addition.
At the time of drug application, culture medium was added to an independent 96 well plate that was incubated in a tissue culture incubator for 48 h. This culture medium was used as the blank of the cTnI release assay.
After the 48 h exposure recording, 150 μL of each well was centrifuged to remove debris. The supernatant was collected and frozen for later cTnI content analysis using an ELISA plate according the manufacturer's instructions (Abcam, cat #ab200016).
Data was stored on the Charles River Laboratories computer network for off-line analysis. Data acquisition was performed using RTCA Cardio Software.
Data analysis was performed using RTCA Cardio Software, Microsoft Excel and Matlab scripts. Data were reported as mean±SEM.
The following field potential parameters were quantitated: Sodium Spike amplitude, Sodium Spike Rate, field potential duration (FPD), Bazett corrected field potential duration (FPDcB), and dysrhythmic events if present.
The following impedance parameters were quantitated: Cell Index, peak amplitude, relaxation from peak to 50% amplitude (Rel50) and twitch duration.
The sodium spike is the voltage signal produced by the propagation of the depolarizing wave (positive peak) and the local activation of sodium channels (negative peak). The sodium spike amplitude is the voltage difference (in […]) between the positive and negative peaks of the sodium spike. The Sodium Spike Rate is a measure of the rate of sodium spike generation (spikes/min) produced by the spontaneous beating of stem cell cardiomyocytes.
Abnormal rhythm activity was characterized by the presence of the following proarrhythmic markers:
Triggered activity: Triggered activity (TA) is activity characterized by the presence of voltage oscillations during the repolarization period (Early After Depolarizations, EADs) or after the repolarization is completed (Delayed After Depolarizations, DADs). They are produced by different mechanisms. EADs are due to reactivation of sodium and calcium currents due to prolongation of the action potential. DADs are due to transient releases of calcium from intracellular calcium stores. Both EADs and DADs can trigger action potentials (ectopic beats, EB).
Impedance instability: Impedance instability (II) consist of small oscillations of the impedance signal during the slower relaxation phase of the impedance twitch sometimes associated with small oscillations of the field potential (FPO). […] II informs about the possibility of drug-induced delayed repolarization setting the background where more robust proarrhythmic markers like EADs and DADs occur.
The SEM of the difference was calculated according to the following equation ΔΔSEM=(SEMtreatment2+SEMcontrol2)0.5.
The statistical analysis includes 1) a Student paired t-test to evaluate the changes respect to baseline and, 2) a multi-comparison analysis (Dunnett's test) of A % changes respect to time matched controls. An alpha probability of 0.05 was considered significant.

[4] = target: hERG ion channel (Homo sapiens, UniProt Q12809); assay: hERG QPatch automated patch clamp; type: cell-based; details: CHO cells stably expressing hERG, QPatch 48, tail current
Protocol: hERG IC50 data was supplied by Metrion using their standard assay protocol briefly detailed below.
hERG ion channel screening was assayed in CHO cells stably expressing the human ether-á-go-go related gene, using the QPatch 48 automated, chip-based planar patch clamp device. A Gigaohm seal between the cell membrane and treated silicon surface was obtained and specific external and internal buffered solutions applied to cells prior to recording. Following baseline vehicle treatment, compounds were applied in increasing concentrations (8 pt CRC), effects on hERG tail current amplitudes were measured in two-minute recordings.

[5] = tested on: HUVEC (human umbilical venous endothelial cells); details: HUVEC tube formation reference; read-out: expected GI50 of reference compound; cited from earlier work
[6] = target: T1, recombinant human P450 enzyme 1A1 (Homo sapiens, UniProt P04798); assay: Formation of reactive metabolites (glutathione adduct) by CYP1A1 with human liver cytosol; type: in vitro ADME; details: 50 μM, human liver cytosol + recombinant CYP1A1, NADPH and GSH, 60 min
T1 construct: host or cells: Bacterial membranes (bactosomes), inferred from the named control preparation
T1 sequence (P04798 1-512): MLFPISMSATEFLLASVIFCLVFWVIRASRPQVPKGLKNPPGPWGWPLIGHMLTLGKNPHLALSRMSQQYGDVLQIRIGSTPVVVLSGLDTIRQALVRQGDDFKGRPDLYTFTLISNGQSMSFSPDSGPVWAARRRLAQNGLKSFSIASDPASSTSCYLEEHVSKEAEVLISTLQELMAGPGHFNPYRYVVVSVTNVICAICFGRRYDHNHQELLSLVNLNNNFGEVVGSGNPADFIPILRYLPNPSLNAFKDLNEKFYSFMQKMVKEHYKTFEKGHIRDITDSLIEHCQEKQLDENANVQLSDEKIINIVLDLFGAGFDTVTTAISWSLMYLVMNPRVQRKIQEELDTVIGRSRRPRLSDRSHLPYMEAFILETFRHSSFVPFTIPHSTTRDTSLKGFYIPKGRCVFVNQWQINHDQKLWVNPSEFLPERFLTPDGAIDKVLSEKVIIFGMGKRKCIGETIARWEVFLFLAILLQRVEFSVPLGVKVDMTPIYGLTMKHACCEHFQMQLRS
Protocol: Investigations into the potential for test compound to form a reactive metabolite were performed using an adapted method detailed by De Lin et al. Briefly, test compound was pre-incubated (n=2; 50 μM substrate concentration) at 37° C. for 5 min with mixed-gender human liver cytosol (1 mg/mL total protein concentration) in 100 mM phosphate buffer (pH 7.4) with 5 mM MgCl2 in the presence of recombinant human P450 enzyme 1A1 (100 nM), in the presence and absence of 5 mM glutathione. At the end of the pre-incubation period, 2 mM NADPH was added to each sample and the mixture incubated at 37° C. for 60 min. Immediately following the addition of NADPH and after the 60 min incubation period, aliquots of each sample were mixed with MeCN (containing internal standard) to terminate the reaction and precipitate the proteins.
Samples were mixed, centrifuged and following appropriate dilution, supernatants were analysed by LC-MS utilising a high-resolution mass spectrometer to perform metabolite identification and characterisation analysis.

hERG ion channel, sequence (Q12809 whole entry): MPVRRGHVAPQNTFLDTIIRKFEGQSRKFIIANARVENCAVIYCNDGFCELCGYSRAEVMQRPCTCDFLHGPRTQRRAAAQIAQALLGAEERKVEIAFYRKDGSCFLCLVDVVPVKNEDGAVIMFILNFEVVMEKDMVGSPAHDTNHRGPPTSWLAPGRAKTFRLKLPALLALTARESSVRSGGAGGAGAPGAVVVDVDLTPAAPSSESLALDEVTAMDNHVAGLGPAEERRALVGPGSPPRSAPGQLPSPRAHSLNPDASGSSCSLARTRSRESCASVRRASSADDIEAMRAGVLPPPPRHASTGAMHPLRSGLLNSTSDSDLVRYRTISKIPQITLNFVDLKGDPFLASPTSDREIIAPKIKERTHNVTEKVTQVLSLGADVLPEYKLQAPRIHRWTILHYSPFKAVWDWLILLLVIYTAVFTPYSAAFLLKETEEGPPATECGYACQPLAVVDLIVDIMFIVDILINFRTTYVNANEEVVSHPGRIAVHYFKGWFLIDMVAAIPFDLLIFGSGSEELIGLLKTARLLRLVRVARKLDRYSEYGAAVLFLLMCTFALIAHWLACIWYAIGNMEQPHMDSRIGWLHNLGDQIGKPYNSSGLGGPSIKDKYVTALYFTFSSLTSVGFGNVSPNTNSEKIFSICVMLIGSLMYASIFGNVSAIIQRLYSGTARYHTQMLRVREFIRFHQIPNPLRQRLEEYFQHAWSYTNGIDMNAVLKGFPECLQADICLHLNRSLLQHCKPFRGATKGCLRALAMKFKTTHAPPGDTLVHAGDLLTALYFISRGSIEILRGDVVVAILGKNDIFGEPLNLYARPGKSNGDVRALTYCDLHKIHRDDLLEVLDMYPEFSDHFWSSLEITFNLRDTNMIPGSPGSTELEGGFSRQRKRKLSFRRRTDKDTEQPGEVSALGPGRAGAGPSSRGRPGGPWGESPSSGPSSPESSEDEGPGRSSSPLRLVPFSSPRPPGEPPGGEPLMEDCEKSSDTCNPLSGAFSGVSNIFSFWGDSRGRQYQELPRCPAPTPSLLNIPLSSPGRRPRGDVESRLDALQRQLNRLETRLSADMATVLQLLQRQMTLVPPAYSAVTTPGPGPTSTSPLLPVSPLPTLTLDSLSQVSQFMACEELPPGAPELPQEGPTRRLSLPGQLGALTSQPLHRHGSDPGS

| effect on sodium spike amplitude vs. control (given as reduction for nilotinib and Example 39) [3] [%] | ΔΔ Na Spike Amp at 10 μM, 48 h (%) [3] [%] | SMILES | IC50 [1] [µM] | GI50 [2] [µM] | Proarrhythmic Markers at 10 μM, 48 h [3] | IC50 [4] [µM] | GI50 [5] [µM] | formation of direct glutathione adduct [6] | formation of direct glutathione adduct ([6]; listed as ponatinib) | effect on cell viability compared to the compounds of the invention [1] [fold] | cTnI release / secretion ([3]; 10 μM (48 h), relative to vehicle) |
| --- | --- | --- | --- | --- | --- | --- | --- | --- | --- | --- | --- |
| 2.2 | 2.20 | Cc1ccc(C(=O)Nc2cc3n(n2)CCCC3(F)F)cc1C#Cc1cccnc1 [Example 97, N-(4,4-difluoro-6,7-dihydro-5H-pyrazolo[1,5-a]pyridin-2-yl)-4-methyl-3-[2-(3-pyridyl)ethynyl]benzamide] | 3.6 | > 10 | Not Observed | > 10 | – | – | – | – | – |
| – | – | Cc1ccc(C(=O)Nc2ccc(S(=O)(=O)O)c3cc(S(=O)(=O)O)cc(S(=O)(=O)O)c23)cc1NC(=O)c1cccc(NC(=O)Nc2cccc(C(=O)Nc3cc(C(=O)Nc4ccc(S(=O)(=O)O)c5cc(S(=O)(=O)O)cc(S(=O)(=O)O)c45)ccc3C)c2)c1 [Suramin] | – | – | – | – | 15 | – | – | – | – |
| 43 | −43.3 | Cc1ccc(C(=O)Nc2cn3c(n2)COCC3(C)C)cc1C#Cc1cccnc1 [Example 39, N-(5,5-dimethyl-6,8-dihydroimidazo[2,1-c][1,4]oxazin-2-yl)-4-methyl-3-[2-(3-pyridyl)ethynyl]benzamide] | 21 | > 30 | Not Observed | > 10 | – | – | – | – | – |
| – | – | Cc1ccc(C(=O)Nc2ccc(CN3CCN(C)CC3)c(C(F)(F)F)c2)cc1C#Cc1cnc2cccnn12 [Ponatinib, reference compound] | – | – | – | – | – | forms a glutathione adduct | forms a significant direct glutathione adduct | ~10 | increased troponin (cTnI) secretion |
